Reference: patent US12247914B2, “Virus sensing in exhaled breath by infrared spectroscopy” (Vox Biomedical LLC, priority 2017, dated 2025)
Like-named read-outs stand apart in the source and are kept apart here.

What was measured:
[1] = cited from earlier work
[2] = cited from earlier work; remark: listed apart in the source
subjects [3] = experiment: Percent of impaired subjects by Standardized Field Sobriety Tests after smoking; format: in vivo; details: about an hour after smoking cessation
Description: (§1) The high lipid solubility of cannabinoids results in their persisting in the body for long periods of time. Even after a single administration of THC, detectable levels of THC can be found in the body for weeks or longer. […] There are three accepted laboratory methods for detecting THC in individuals that have smoked or ingested marijuana: (1) urine testing, for which passive inhalation up to 22 minutes for infrequent users can be detected for 7-10 days after inhalation, with longer periods for heavy users, (2) hair testing, with THC being detectible for up to 90 days after inhalation, and (3) blood and oral fluid testing, for which THC can be detected for 2-24 hours after use in most cases, but for up to 2 weeks in some heavy users. A detailed investigation of the relationship between time after marijuana smoking and relative subject impairment provides an estimate of the relative degree of impairment (defined under Standardized Field Sobriety Tests) as a function of time after smoking various smoke concentrations of THC is shown in Table 1.

subjects [4] = details: cited from earlier work
[5] = Blood THC concentration versus time after smoking; format: in vivo; details: about an hour after smoking cessation
Description: as §1

[6] = dose 1.74% THC smoked, Time 1 (0-5 mins) after smoking
[7] = dose 1.74% THC smoked, Time 2 (50-55 mins) after smoking
[8] = dose 1.74% THC smoked, Time 3 (100-105 mins) after smoking
[9] = dose 2.93% THC smoked, Time 1 (0-5 mins) after smoking
[10] = dose 2.93% THC smoked, Time 2 (50-55 mins) after smoking
[11] = dose 2.93% THC smoked, Time 3 (100-105 mins) after smoking

CCCCCc1cc(O)c2c(c1)OC(C)(C)[C@@H]1CCC(C)=C[C@@H]21 [THC, delta-9-tetrahydrocannabinol]
time THC can be detected after use, blood and oral fluid testing ([1]; most cases): 2 to 24 h
time THC can be detected after use, blood and oral fluid testing ([1]; some heavy users): up to 2 weeks
time THC is detectible after inhalation, hair testing ([1]; hair): up to 90 days
time THC can be detected after inhalation, urine testing ([1]; urine, infrequent users, passive inhalation up to 22 minutes): 7 to 10 days
Blood THC [2, 6]: 55.5 ng/mL
Blood THC [2, 7]: 6.8 ng/mL
Blood THC [2, 8]: 3.7 ng/mL
Blood THC [2, 9]: 70.6 ng/mL
Blood THC [2, 10]: 6.2 ng/mL
Blood THC [2, 11]: 3.2 ng/mL
relative degree of impairment relative to its initial value (subjects [3]): about half
% impaired (subjects [4]; [6]): 23%
% impaired (subjects [4]; [7]): 23%
% impaired (subjects [4]; [8]): 15%
% impaired (subjects [4]; [9]): 46%
% impaired (subjects [4]; [10]): 41%
% impaired (subjects [4]; [11]): 28%
blood content of THC relative to its initial value [5]: ~10%
